Results published in patent US20180332847A1, “ANTIMICROBIAL METAL CARBOXYLATE-BENZISOTHIAZOLINONE MIXTURES” (Troy Corporation, priority 2017, published 2018).
“And” between values parts separate entries of the source, which are not always exact repeats. Equal entries are not always repeated.

Assays:
Type in all cases: cell-based
Alternaria alternata = test: Minimum Inhibitory Concentration (MIC) by spiral plater / spiral gradient endpoint against Alternaria alternata
Experimental: (§1) Synergistic Index=Qa/QA+Qb/QB [Equation No. 1] • where Qa=the quantity of component A used in a binary mixture that gives the desired effect • QA=the quantity of component A which when used alone gives the desired effect • Qb=the quantity of component B used in a binary mixture that gives the desired effect • QB=the quantity of component B which when used alone gives the desired effect
(§2) Minimum Inhibitory Concentration (“MIC”) for each of the antimicrobial compositions was determined against a test microbe, which in this case was a spore suspension of the fungus Alternaria alternata, with the aid of an Autoplate 4000 spiral plater that is commercially available from Spiral Biotech, Inc., Norwood, Mass., and its accompanying spiral gradient endpoint software (hereinafter referred to as “the SGE software”). The spiral plater automates the normal serial dilution method for determining MICs. Although the details of the SGE software are held confidentially by Spiral Biotech, Inc., they are believed to consistent with the principles set forth in “Measurement of MICs of antibacterial agents by spiral gradient endpoint compared with conventional dilution method” J. H. Paton, H. A. Holt, and M. J. Bywater—Int. J. Exp. Clin. Chemother, 1990.
Spore suspensions for the test microbe were prepared by growing Alternaria alternata on a Difco malt agar slant in an incubator for 1 week at 28° C. Spores were loosened by adding a small amount of buffer solution at pH 7.0 and scraping with a sterile nichrome wire loop. This process was repeated twice. The buffer solution included phosphate buffer and magnesium chloride, and was obtained commercially from Thomas Scientific Company, as Lot #023-0703.
Loosened spores were removed from the slant by aseptically pouring them into a sterile bottle containing 30 ml of the buffer solution and a volume of approximately 40 ml of 6 mm diameter borosilicate glass beads. The bead bottle was shaken to disperse the spores and adjusted to a final liquid volume of 50 ml. For use as a test inoculum, spore density was adjusted in distilled water blanks to that of a 0.5 McFarland nephelometer standard.
(§3) The spiral plater automatically applied 54.3 micro-liters of each antimicrobial composition of interest to the surface of 150 millimeter malt agar plates using an exponential application gradient. The concentration of the antimicrobial concentration was greatest near the center of the Petri plates and decreased toward the edges. Antimicrobial composition gradients were allowed to air dry at room temperature for 1 to 4 hours at 23° C. before inoculation with test microbe. Spiral gradient plates were inoculated by streaking with cotton swabs that had been soaked in test microbe spore suspension. Streaks were applied in a radial pattern, using a paper template generated by the SGE software to guide the application. Eight radii were inoculated per Petri plate. Each radius is considered as one replicated observation.
(§4) Inoculated spiral gradient plates were incubated for 48 hours in an incubator at 28° C. Visible growth of the test microbe developed along the radial streaks and ended where the concentration of the antimicrobial composition was sufficient to prevent growth. This growth endpoint value (expressed in mm as measured from center point of the Petri plate) was used to calculate MIC for the mixture, expressed as parts per million.
Utilizing the procedure described above in Example 1, Minimum Inhibitory Concentration (“MIC”) for each of the antimicrobial compositions was determined against a test microbe, which in this case was a spore suspension of the […] Alternaria alternata.

Candida albicans = test: Minimum Inhibitory Concentration (MIC) by spiral plater / spiral gradient endpoint against Candida albicans
Experimental: as §1, §2, §3, §4
Utilizing the procedure described above in Example, Minimum Inhibitory Concentration (“MIC”) for each of the antimicrobial compositions was determined against a test microbe, which in this case was a spore suspension of the yeast Candida albicans., as described above in Example 1. Several antimicrobial compositions containing calcium gluconate, BIT, or both in water were investigated, as shown below in Table 3
Utilizing the procedure described above in Example 1, Minimum Inhibitory Concentration (“MIC”) for each of the antimicrobial compositions was determined against a test microbe, which in this case was a spore suspension of the yeast Candida albicans. Several antimicrobial compositions containing calcium glycerate, BIT, or both in water were investigated, as shown below in Table 11.
Utilizing the procedure described above in Example 1, Minimum Inhibitory Concentration (“MIC”) for antimicrobial compositions was determined against a test microbe, which in this case was a spore suspension of the yeast Candida albicans. Several antimicrobial compositions containing calcium glycerate, BIT, or both in water were investigated, as shown below in Table 23.
Utilizing the procedure described above in Example 1, Minimum Inhibitory Concentration (“MIC”) for each of the antimicrobial compositions was determined against a test microbe, which in this case was a spore suspension of the fungus Candida Albicans.

Staphylococcus aureus = test: Minimum Inhibitory Concentration (MIC) by spiral plater / spiral gradient endpoint against Staphylococcus aureus

For `O=c1[nH]sc2ccccc12` [BIT, 1,2-benzisothiazol-3(2H)-one], the QB (Alternaria alternata; MIC of BIT alone for Alternaria alternata, used for SI (zinc ethylhexanoate series)) was 13 ppm, the QB (Alternaria alternata; MIC of BIT alone for Alternaria alternata, used for SI (zinc glycerate series)) was 8.3 ppm and the QB (Alternaria alternata; quantity of BIT used alone that gives the desired effect, calcium ethylhexanoate-BIT series, Alternaria alternata) was 13 ppm. The QB (Alternaria alternata; quantity of BIT used alone that gives the desired effect, calcium gluconate-BIT series, Alternaria alternata) was 13 ppm, the QB (Alternaria alternata; quantity of BIT used alone that gives the desired effect, calcium glycerate-BIT series, Alternaria alternata) was 85 ppm and the “ppm of BIT alone providing the same inhibition” value (Alternaria alternata; zinc ethylhexanoate-BIT series, Alternaria alternata) was 13 ppm. The “ppm of BIT alone providing the same inhibition” value (Alternaria alternata; zinc glycerate-BIT series, Alternaria alternata) was 8.3 ppm, the QB (Candida albicans; MIC of BIT alone for Candida albicans (average of Trials 1, 2), used for SI (zinc ethylhexanoate series)) was 19 ppm and the QB (Candida albicans; MIC of BIT alone for Candida albicans, used for SI (zinc glycerate series)) was 13 ppm and 16 ppm. For the same compound, the QB (Candida albicans; quantity of BIT used alone that gives the desired effect, calcium gluconate-BIT series, Candida albicans) was 23 ppm, the QB (Candida albicans; quantity of BIT used alone that gives the desired effect, calcium glycerate-BIT series, Candida albicans) was 85 ppm and the “ppm of BIT alone providing the same inhibition” value (Candida albicans; zinc ethylhexanoate-BIT series, Candida albicans) was 19 ppm. For the same compound, the “ppm of BIT alone providing the same inhibition” value (Candida albicans; zinc glycerate-BIT series, Candida albicans) was 13 ppm, the QB (Staphylococcus aureus; MIC of BIT alone for Staphylococcus aureus, used for SI) was 16 ppm and the “ppm of BIT alone providing the same inhibition” value (Staphylococcus aureus; zinc glycerate-BIT series, Staphylococcus aureus) was 16 ppm.
